Values joined by “and” are separate entries in the source; they are usually repeats but may differ in a detail not shown here. Equal values may be shown once. Inconclusive results and toxic doses are left out.
Test system: L1210 leukemia ip in BDF1 mice, survival T/C
Test: NCI In Vivo Anticancer Drug Screen. Data for tumor model L1210 Leukemia (intraperitoneal) in B6D2F1 (BDF1) mice
Details: higher = longer survival
Procedure, shortened: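 Transplantable tumor model; survival measured in treated vs vehicle control mice. Value = treated/control.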

[1] = endpoint: mean survival time, dose: 100.0 mg/kg/injection, schedule: Q04DX003 (ip), vehicle: saline with Tween-80

Compound: COC(=O)Nc1nc2ccc(C(=O)c3cccs3)cc2[nH]1
- T/C (endpoint: mean survival time, dose: 10.0 mg/kg/injection, schedule: Q01DX009 (ip), vehicle: saline with Tween-80): 102 % of control
- T/C (endpoint: mean survival time, dose: 10.0 mg/kg/injection, schedule: Q04DX003 (ip), vehicle: Klucel (hydroxypropylcellulose) (HPC)): 98 % of control
- T/C (endpoint: mean survival time, dose: 20.0 mg/kg/injection, schedule: Q01DX009 (ip), vehicle: saline with Tween-80): 118 % of control
- T/C (endpoint: mean survival time, dose: 20.0 mg/kg/injection, schedule: Q04DX003 (ip), vehicle: Klucel (hydroxypropylcellulose) (HPC)): 101 % of control
- T/C (endpoint: mean survival time, dose: 40.0 mg/kg/injection, schedule: Q04DX003 (ip), vehicle: Klucel (hydroxypropylcellulose) (HPC)): 107 % of control
- T/C (endpoint: mean survival time, dose: 50.0 mg/kg/injection, schedule: Q04DX003 (ip), vehicle: Klucel (hydroxypropylcellulose) (HPC)): 108 % of control and 111 % of control
- T/C (endpoint: mean survival time, dose: 50.0 mg/kg/injection, schedule: Q04DX003 (ip), vehicle: saline with Tween-80): 111 % of control
- T/C (endpoint: mean survival time, dose: 70.0 mg/kg/injection, schedule: Q04DX003 (ip), vehicle: other): 157 % of control
- T/C (endpoint: mean survival time, dose: 75.0 mg/kg/injection, schedule: Q04DX003 (ip), vehicle: Klucel (hydroxypropylcellulose) (HPC)): 111 % of control and 121 % of control
- T/C (endpoint: mean survival time, dose: 75.0 mg/kg/injection, schedule: Q04DX003 (ip), vehicle: other): 117 % of control and 183 % of control and 210 % of control
- T/C (endpoint: mean survival time, dose: 80.0 mg/kg/injection, schedule: Q04DX003 (ip), vehicle: Klucel (hydroxypropylcellulose) (HPC)): 94 % of control
- T/C (endpoint: mean survival time, dose: 80.0 mg/kg/injection, schedule: Q04DX003 (ip), vehicle: other): 153 % of control
- T/C (endpoint: mean survival time, dose: 100.0 mg/kg/injection, schedule: Q01DX009 (oral), vehicle: saline with Tween-80): 94 % of control
- T/C (endpoint: mean survival time, dose: 100.0 mg/kg/injection, schedule: Q04DX003 (ip), vehicle: Klucel (hydroxypropylcellulose) (HPC)): 115 % of control
- T/C (endpoint: mean survival time, dose: 100.0 mg/kg/injection, schedule: Q04DX003 (ip), vehicle: other): 114 % of control and 115 % of control and 89 % of control
- T/C [1]: 155 % of control and 170 % of control
- T/C (endpoint: mean survival time, dose: 150.0 mg/kg/injection, schedule: Q04DX003 (ip), vehicle: other): 104 % of control
- T/C (endpoint: mean survival time, dose: 160.0 mg/kg/injection, schedule: Q04DX003 (ip), vehicle: Klucel (hydroxypropylcellulose) (HPC)): 113 % of control
- T/C (endpoint: mean survival time, dose: 200.0 mg/kg/injection, schedule: Q01DX009 (oral), vehicle: saline with Tween-80): 96 % of control
- T/C (endpoint: mean survival time, dose: 200.0 mg/kg/injection, schedule: Q04DX003 (oral), vehicle: saline with Tween-80): 104 % of control
- T/C (endpoint: mean survival time, dose: 400.0 mg/kg/injection, schedule: Q01DX009 (oral), vehicle: saline with Tween-80): 100 % of control
- T/C (endpoint: mean survival time, dose: 400.0 mg/kg/injection, schedule: Q04DX003 (oral), vehicle: saline with Tween-80): 97 % of control
- T/C (endpoint: mean survival time, dose: 600.0 mg/kg/injection, schedule: Q04DX003 (oral), vehicle: saline with Tween-80): 104 % of control
- T/C (endpoint: mean survival time, dose: 800.0 mg/kg/injection, schedule: Q04DX003 (oral), vehicle: saline with Tween-80): 89 % of control
- T/C (endpoint: mean survival time, dose: 1600.0 mg/kg/injection, schedule: Q04DX003 (oral), vehicle: saline with Tween-80): 104 % of control
- T/C (endpoint: median survival time, dose: 5.0 mg/kg/injection, schedule: Q01DX009 (ip), vehicle: other): 101 % of control
- T/C (endpoint: median survival time, dose: 7.5 mg/kg/injection, schedule: Q03HX016 (ip), vehicle: other): 158 % of control
- T/C (endpoint: median survival time, dose: 7.5 mg/kg/injection, schedule: Q03HX024 (ip), vehicle: other): 164 % of control
- T/C (endpoint: median survival time, dose: 10.0 mg/kg/injection, schedule: Q01DX009 (ip), vehicle: other): 117 % of control and 120 % of control
- T/C (endpoint: median survival time, dose: 10.0 mg/kg/injection, schedule: Q03HX016 (ip), vehicle: other): 158 % of control
- T/C (endpoint: median survival time, dose: 15.0 mg/kg/injection, schedule: Q03HX008 (ip), vehicle: other): 177 % of control
- T/C (endpoint: median survival time, dose: 15.0 mg/kg/injection, schedule: Q03HX024 (ip), vehicle: other): 88 % of control
- T/C (endpoint: median survival time, dose: 20.0 mg/kg/injection, schedule: Q01DX005 (ip), vehicle: other): 151 % of control
- T/C (endpoint: median survival time, dose: 20.0 mg/kg/injection, schedule: Q01DX009 (ip), vehicle: other): 121 % of control
- T/C (endpoint: median survival time, dose: 20.0 mg/kg/injection, schedule: Q08HX009 (ip), vehicle: other): 119 % of control
- T/C (endpoint: median survival time, dose: 30.0 mg/kg/injection, schedule: Q01DX005 (ip), vehicle: other): 153 % of control
- T/C (endpoint: median survival time, dose: 30.0 mg/kg/injection, schedule: Q01DX009 (ip), vehicle: other): 157 % of control
- T/C (endpoint: median survival time, dose: 35.0 mg/kg/injection, schedule: Q04DX003 (ip), vehicle: Klucel (hydroxypropylcellulose) (HPC)): 119 % of control
- T/C (endpoint: median survival time, dose: 35.0 mg/kg/injection, schedule: Q04DX003 (ip), vehicle: other): 123 % of control
- T/C (endpoint: median survival time, dose: 40.0 mg/kg/injection, schedule: Q04DX003 (ip), vehicle: other): 104 % of control
- T/C (endpoint: median survival time, dose: 50.0 mg/kg/injection, schedule: Q01DX005 (ip), vehicle: other): 86 % of control
- T/C (endpoint: median survival time, dose: 50.0 mg/kg/injection, schedule: Q01DX009 (ip), vehicle: other): 103 % of control
- T/C (endpoint: median survival time, dose: 50.0 mg/kg/injection, schedule: Q04DX003 (ip), vehicle: Klucel (hydroxypropylcellulose) (HPC)): 119 % of control
- T/C (endpoint: median survival time, dose: 70.0 mg/kg/injection, schedule: Q04DX003 (ip), vehicle: Klucel (hydroxypropylcellulose) (HPC)): 119 % of control
- T/C (endpoint: median survival time, dose: 75.0 mg/kg/injection, schedule: Q04DX003 (oral), vehicle: other): 101 % of control
- T/C (endpoint: median survival time, dose: 80.0 mg/kg/injection, schedule: Q01DX001 (ip), vehicle: other): 157 % of control
- T/C (endpoint: median survival time, dose: 80.0 mg/kg/injection, schedule: Q08DX002 (ip), vehicle: other): 182 % of control
- T/C (endpoint: median survival time, dose: 90.0 mg/kg/injection, schedule: Q04DX003 (ip), vehicle: other): 167 % of control
- T/C (endpoint: median survival time, dose: 100.0 mg/kg/injection, schedule: Q01DX001 (ip), vehicle: other): 151 % of control
- T/C (endpoint: median survival time, dose: 100.0 mg/kg/injection, schedule: Q01DX009 (oral), vehicle: other): 102 % of control
- T/C (endpoint: median survival time, dose: 100.0 mg/kg/injection, schedule: Q04DX003 (iv), vehicle: other): 101 % of control
- T/C (endpoint: median survival time, dose: 130.0 mg/kg/injection, schedule: Q01DX001 (ip), vehicle: other): 155 % of control
- T/C (endpoint: median survival time, dose: 140.0 mg/kg/injection, schedule: Q08DX002 (ip), vehicle: other): 112 % of control
- T/C (endpoint: median survival time, dose: 150.0 mg/kg/injection, schedule: Q04DX003 (oral), vehicle: other): 119 % of control
- T/C (endpoint: median survival time, dose: 160.0 mg/kg/injection, schedule: Q08DX002 (ip), vehicle: other): 153 % of control
- T/C (endpoint: median survival time, dose: 200.0 mg/kg/injection, schedule: Q01DX009 (oral), vehicle: other): 103 % of control
- T/C (endpoint: median survival time, dose: 300.0 mg/kg/injection, schedule: Q01DX009 (oral), vehicle: other): 109 % of control
- T/C (endpoint: median survival time, dose: 300.0 mg/kg/injection, schedule: Q04DX003 (oral), vehicle: other): 98 % of control
- T/C (endpoint: median survival time, dose: 400.0 mg/kg/injection, schedule: Q01DX009 (oral), vehicle: other): 108 % of control
- T/C (endpoint: median survival time, dose: 400.0 mg/kg/injection, schedule: Q04DX003 (oral), vehicle: other): 102 % of control
- T/C (endpoint: median survival time, dose: 500.0 mg/kg/injection, schedule: Q04DX003 (oral), vehicle: other): 97 % of control
- T/C (endpoint: median survival time, dose: 600.0 mg/kg/injection, schedule: Q04DX003 (oral), vehicle: other): 104 % of control

Compound: CCCCCCC(=O)Nc1cccc(OC(=O)NC)c1
- T/C [1]: 98 % of control
- T/C (endpoint: mean survival time, dose: 200.0 mg/kg/injection, schedule: Q04DX003 (ip), vehicle: saline with Tween-80): 96 % of control
- T/C (endpoint: mean survival time, dose: 400.0 mg/kg/injection, schedule: Q04DX003 (ip), vehicle: saline with Tween-80): 88 % of control

Compound: Cc1ccc(C[N+](C)(C)C)cc1
- T/C (endpoint: mean survival time, dose: 9.38 mg/kg/injection, schedule: Q01DX001 (ip), vehicle: saline): 103 % of control
- T/C (endpoint: mean survival time, dose: 18.75 mg/kg/injection, schedule: Q01DX001 (ip), vehicle: saline): 100 % of control
- T/C (endpoint: mean survival time, dose: 37.5 mg/kg/injection, schedule: Q01DX001 (ip), vehicle: saline): 100 % of control

Compound: COc1cc2c(cc1OC)-c1oncc1CCC2
- T/C (endpoint: mean survival time, dose: 100.0 mg/kg/injection, schedule: Q01DX001 (ip), vehicle: carboxymethylcellulose (CMC)): 95 % of control
- T/C (endpoint: mean survival time, dose: 200.0 mg/kg/injection, schedule: Q01DX001 (ip), vehicle: carboxymethylcellulose (CMC)): 106 % of control
- T/C (endpoint: mean survival time, dose: 400.0 mg/kg/injection, schedule: Q01DX001 (ip), vehicle: carboxymethylcellulose (CMC)): 88 % of control

Compound: COc1ccccc1-n1c(O)c(N=Nc2ccc(Cl)cc2)c(=O)n(-c2ccccc2OC)c1=S
- T/C (endpoint: mean survival time, dose: 100.0 mg/kg/injection, schedule: Q01DX001 (ip), vehicle: Klucel (hydroxypropylcellulose) (HPC)): 104 % of control
- T/C (endpoint: mean survival time, dose: 200.0 mg/kg/injection, schedule: Q01DX001 (ip), vehicle: Klucel (hydroxypropylcellulose) (HPC)): 110 % of control

Compound: O=c1cc(N(Cc2ccccc2)Cc2ccccc2)[nH]c(=O)[nH]1
- T/C (endpoint: mean survival time, dose: 75.0 mg/kg/injection, schedule: Q01DX001 (ip), vehicle: Klucel (hydroxypropylcellulose) (HPC)): 101 % of control
- T/C (endpoint: mean survival time, dose: 75.0 mg/kg/injection, schedule: Q01DX001 (ip), vehicle: saline with Tween-80): 94 % of control
- T/C (endpoint: mean survival time, dose: 150.0 mg/kg/injection, schedule: Q01DX001 (ip), vehicle: Klucel (hydroxypropylcellulose) (HPC)): 102 % of control
- T/C (endpoint: mean survival time, dose: 150.0 mg/kg/injection, schedule: Q01DX001 (ip), vehicle: saline with Tween-80): 95 % of control
- T/C (endpoint: mean survival time, dose: 300.0 mg/kg/injection, schedule: Q01DX001 (ip), vehicle: Klucel (hydroxypropylcellulose) (HPC)): 106 % of control
- T/C (endpoint: mean survival time, dose: 300.0 mg/kg/injection, schedule: Q01DX001 (ip), vehicle: saline with Tween-80): 98 % of control

Reference: PubChem BioAssay AID248 (DTP/NCI, 2004)
